Data from patent publication EP4796130A1, “ANTI-TISSUE FACTOR ANTIBODY-DRUG CONJUGATE COMPRISING CAMPTOTHECIN DERIVATIVE” (Celltrion, Inc., priority 2023, dated 2025).
“And” between values parts separate entries of the source, which are not always exact repeats. Equal values may be shown once.

How the values were obtained:
[1] = test system: HPAFII (human pancreatic cancer xenograft model); experiment: In vivo antitumor efficacy, HPAFII xenograft model; parameters: species or system CB17 SCID mice; details: for Tumor Volume / Tumor Weights on Day 28: mean ± SEM; for T/Cweight / TGI: day 28 vs control group G1; for T/C: tumor volume on day 28 vs control group G1
[2] = one mouse in G5 (3 mg/kg i.v. QW x 3 weeks); day 18 after start of treatment; autopsied, no abnormalities found
Description: Animal body weights were regularly monitored as an indirect measure of toxicity. […]

[3] = test system: KYSE520 (human esophageal cancer xenograft model); experiment: In vivo antitumor efficacy, KYSE520 xenograft model; parameters: species or system BALB/c nude mice; details: for Tumor Volume / Tumor Weights on Day 35: mean ± SEM; for T/Cweight / TGI: day 35 vs control group G1; for T/C: tumor volume on day 35 vs control group G1
[4] = test system: MCF-7 (a breast cancer cell line); assay type: cell-based; details: 6 days incubation

Substance: Tivdak: ADC in which MMAE is conjugated to Tisotumab; purchased from Jupiter Research Service LLC; DAR 4
- Tumor Volume ([1]; 0.3 mg/kg i.v. QW × 3, day 0): 235 ± 17 mm^3
- Tumor Volume ([1]; 0.3 mg/kg i.v. QW × 3, day 4): 313 ± 34 mm^3
- Tumor Volume ([1]; 0.3 mg/kg i.v. QW × 3, day 7): 361 ± 49 mm^3
- Tumor Volume ([1]; 0.3 mg/kg i.v. QW × 3, day 11): 476 ± 64 mm^3
- Tumor Volume ([1]; 0.3 mg/kg i.v. QW × 3, day 14): 576 ± 69 mm^3
- Tumor Volume ([1]; 0.3 mg/kg i.v. QW × 3, day 18): 737 ± 91 mm^3
- Tumor Volume ([1]; 0.3 mg/kg i.v. QW × 3, day 21): 934 ± 113 mm^3
- Tumor Volume ([1]; 0.3 mg/kg i.v. QW × 3, day 25): 1,219 ± 141 mm^3
- Tumor Volume ([1]; 0.3 mg/kg i.v. QW × 3, day 28): 1,607 ± 144 mm^3
- T/Cweight ([1]; 0.3 mg/kg i.v. QW × 3): 68.36%
- TGI ([1]; 0.3 mg/kg i.v. QW × 3): 35.24%
- Tumor Weights on Day 28 ([1]; 0.3 mg/kg i.v. QW × 3): 1.461 ± 0.146 g
- T/C ([1]; 0.3 mg/kg i.v. QW × 3): 68.29%
- Tumor Volume ([1]; 1 mg/kg i.v. QW × 1, day 0): 235 ± 17 mm^3
- Tumor Volume ([1]; 1 mg/kg i.v. QW × 1, day 4): 217 ± 16 mm^3
- Tumor Volume ([1]; 1 mg/kg i.v. QW × 1, day 7): 141 ± 16 mm^3
- Tumor Volume ([1]; 1 mg/kg i.v. QW × 1, day 11): 87 ± 9 mm^3
- Tumor Volume ([1]; 1 mg/kg i.v. QW × 1, day 14): 103 ± 14 mm^3
- Tumor Volume ([1]; 1 mg/kg i.v. QW × 1, day 18): 161 ± 31 mm^3
- Tumor Volume ([1]; 1 mg/kg i.v. QW × 1, day 21): 213 ± 34 mm^3
- Tumor Volume ([1]; 1 mg/kg i.v. QW × 1, day 25): 344 ± 49 mm^3
- Tumor Volume ([1]; 1 mg/kg i.v. QW × 1, day 28): 486 mm^3 and 486 ± 73 mm^3
- T/Cweight ([1]; 1 mg/kg i.v. QW × 1): 21.23%
- TGI ([1]; 1 mg/kg i.v. QW × 1): 88.15%
- Tumor Weights on Day 28 ([1]; 1 mg/kg i.v. QW × 1): 0.454 ± 0.088 g
- T/C ([1]; 1 mg/kg i.v. QW × 1): 20.67%
- Tumor Volume ([1]; 1 mg/kg i.v. QW × 3, day 0): 235 ± 17 mm^3
- Tumor Volume ([1]; 1 mg/kg i.v. QW × 3, day 4): 190 ± 12 mm^3
- Tumor Volume ([1]; 1 mg/kg i.v. QW × 3, day 7): 124 ± 11 mm^3
- Tumor Volume ([1]; 1 mg/kg i.v. QW × 3, day 11): 85 ± 9 mm^3
- Tumor Volume ([1]; 1 mg/kg i.v. QW × 3, day 14): 70 ± 8 mm^3
- Tumor Volume ([1]; 1 mg/kg i.v. QW × 3, day 18): 54 ± 6 mm^3
- Tumor Volume ([1]; 1 mg/kg i.v. QW × 3, day 21): 40 ± 4 mm^3
- Tumor Volume ([1]; 1 mg/kg i.v. QW × 3, day 25): 33 ± 4 mm^3
- Tumor Volume ([1]; 1 mg/kg i.v. QW × 3, day 28): 26 mm^3 and 26 ± 3 mm^3
- T/Cweight ([1]; 1 mg/kg i.v. QW × 3): 1.03%
- TGI ([1]; 1 mg/kg i.v. QW × 3): 109.91%
- Tumor Weights on Day 28 ([1]; 1 mg/kg i.v. QW × 3): 0.022 ± 0.003 g
- T/C ([1]; 1 mg/kg i.v. QW × 3): 1.09%
- Tumor Volume ([1]; 3 mg/kg i.v. QW × 1, day 0): 235 ± 17 mm^3
- Tumor Volume ([1]; 3 mg/kg i.v. QW × 1, day 4): 216 ± 19 mm^3
- Tumor Volume ([1]; 3 mg/kg i.v. QW × 1, day 7): 128 ± 10 mm^3
- Tumor Volume ([1]; 3 mg/kg i.v. QW × 1, day 11): 69 ± 8 mm^3
- Tumor Volume ([1]; 3 mg/kg i.v. QW × 1, day 14): 56 ± 4 mm^3
- Tumor Volume ([1]; 3 mg/kg i.v. QW × 1, day 18): 39 ± 3 mm^3
- Tumor Volume ([1]; 3 mg/kg i.v. QW × 1, day 21): 30 ± 2 mm^3
- Tumor Volume ([1]; 3 mg/kg i.v. QW × 1, day 25): 26 ± 2 mm^3
- Tumor Volume ([1]; 3 mg/kg i.v. QW × 1, day 28): 19 mm^3 and 19 ± 1 mm^3
- T/Cweight ([1]; 3 mg/kg i.v. QW × 1): 0.54%
- TGI ([1]; 3 mg/kg i.v. QW × 1): 110.22%
- Tumor Weights on Day 28 ([1]; 3 mg/kg i.v. QW × 1): 0.012 ± 0.001 g
- T/C ([1]; 3 mg/kg i.v. QW × 1): 0.80%
- body weight loss [2]: more than 20%
- Tumor Volume ([3]; 1 mg/kg i.v. QW x 3 weeks, day 0): 175 ± 8 mm^3
- Tumor Volume ([3]; 1 mg/kg i.v. QW x 3 weeks, day 4): 279 ± 20 mm^3
- Tumor Volume ([3]; 1 mg/kg i.v. QW x 3 weeks, day 7): 360 ± 29 mm^3
- Tumor Volume ([3]; 1 mg/kg i.v. QW x 3 weeks, day 11): 489 ± 37 mm^3
- Tumor Volume ([3]; 1 mg/kg i.v. QW x 3 weeks, day 14): 672 ± 51 mm^3
- Tumor Volume ([3]; 1 mg/kg i.v. QW x 3 weeks, day 18): 771 ± 64 mm^3
- Tumor Volume ([3]; 1 mg/kg i.v. QW x 3 weeks, day 21): 865 ± 75 mm^3
- Tumor Volume ([3]; 1 mg/kg i.v. QW x 3 weeks, day 25): 1,168 ± 101 mm^3
- Tumor Volume ([3]; 1 mg/kg i.v. QW x 3 weeks, day 28): 1,497 ± 121 mm^3
- Tumor Volume ([3]; 1 mg/kg i.v. QW x 3 weeks, day 32): 1,634 ± 126 mm^3
- Tumor Volume ([3]; 1 mg/kg i.v. QW x 3 weeks, day 35): 1,893 ± 166 mm^3
- T/Cweight ([3]; 1 mg/kg i.v. QW x 3 weeks): 86.67%
- TGI ([3]; 1 mg/kg i.v. QW x 3 weeks): 13.03%
- Tumor Weights on Day 35 ([3]; 1 mg/kg i.v. QW x 3 weeks): 1.869 ± 0.138 g
- T/C ([3]; 1 mg/kg i.v. QW x 3 weeks): 88.03%
- Tumor Volume ([3]; 3 mg/kg i.v. QW x 3 weeks, day 0): 175 ± 8 mm^3
- Tumor Volume ([3]; 3 mg/kg i.v. QW x 3 weeks, day 4): 241 ± 23 mm^3
- Tumor Volume ([3]; 3 mg/kg i.v. QW x 3 weeks, day 7): 279 ± 24 mm^3
- Tumor Volume ([3]; 3 mg/kg i.v. QW x 3 weeks, day 11): 281 ± 31 mm^3
- Tumor Volume ([3]; 3 mg/kg i.v. QW x 3 weeks, day 14): 270 ± 31 mm^3
- Tumor Volume ([3]; 3 mg/kg i.v. QW x 3 weeks, day 18): 174 ± 17 mm^3
- Tumor Volume ([3]; 3 mg/kg i.v. QW x 3 weeks, day 21): 154 ± 17 (n = 9)^c mm^3
- Tumor Volume ([3]; 3 mg/kg i.v. QW x 3 weeks, day 25): 142 ± 15(n = 9) mm^3
- Tumor Volume ([3]; 3 mg/kg i.v. QW x 3 weeks, day 28): 129 ± 16 (n = 9) mm^3
- Tumor Volume ([3]; 3 mg/kg i.v. QW x 3 weeks, day 32): 115 ± 16(n = 9) mm^3
- Tumor Volume ([3]; 3 mg/kg i.v. QW x 3 weeks, day 35): 99 mm^3 and 99 ± 14 (n = 9) mm^3 and 99 ± 14 mm^3
- T/Cweight ([3]; 3 mg/kg i.v. QW x 3 weeks): 4.12%
- TGI ([3]; 3 mg/kg i.v. QW x 3 weeks): 103.89%
- Tumor Weights on Day 35 ([3]; 3 mg/kg i.v. QW x 3 weeks): 0.089 ± 0.013 g
- T/C ([3]; 3 mg/kg i.v. QW x 3 weeks): 4.58%
- Tumor Volume ([3]; 10 mg/kg i.v. QW x 3 weeks, day 0): 175 ± 8 mm^3
- Tumor Volume ([3]; 10 mg/kg i.v. QW x 3 weeks, day 4): 243 ± 22 mm^3
- Tumor Volume ([3]; 10 mg/kg i.v. QW x 3 weeks, day 7): 259 ± 24 mm^3
- Tumor Volume ([3]; 10 mg/kg i.v. QW x 3 weeks, day 11): 234 ± 23 mm^3
- Tumor Volume ([3]; 10 mg/kg i.v. QW x 3 weeks, day 14): 196 ± 16 mm^3
- Tumor Volume ([3]; 10 mg/kg i.v. QW x 3 weeks, day 18): 122 ± 11 mm^3
- Tumor Volume ([3]; 10 mg/kg i.v. QW x 3 weeks, day 21): 101 ± 7 mm^3
- Tumor Volume ([3]; 10 mg/kg i.v. QW x 3 weeks, day 25): 88 ± 7 mm^3
- Tumor Volume ([3]; 10 mg/kg i.v. QW x 3 weeks, day 28): 69 ± 5 mm^3
- Tumor Volume ([3]; 10 mg/kg i.v. QW x 3 weeks, day 32): 58 ± 5 mm^3
- Tumor Volume ([3]; 10 mg/kg i.v. QW x 3 weeks, day 35): 45 mm^3 and 45 ± 6 mm^3
- T/Cweight ([3]; 10 mg/kg i.v. QW x 3 weeks): 1.93%
- TGI ([3]; 10 mg/kg i.v. QW x 3 weeks): 106.62%
- Tumor Weights on Day 35 ([3]; 10 mg/kg i.v. QW x 3 weeks): 0.042 ± 0.004 g
- T/C ([3]; 10 mg/kg i.v. QW x 3 weeks): 2.08%
- IC50 [4]: 442 nM
